From paper PMC7765920 (Molecules, 2020)
Where two headings read alike, the source gives them in different places.

Assays:
Format in all cases: biochemical
[1] = target: T1, GST-DYRK1A-ΔC (amino acids 1–499 of rat DYRK1A) (Rattus norvegicus, UniProt Q63470); assay: Kinase-GLO luminescent assay of DYRK1A catalytic activity; details: read-out: DYRK1A residual activity
T1 construct: containing amino acids 1–499 of rat DYRK1A; made in house; host or cells: E. coli
Method: (§1) Optimization of the compounds, however, aimed predominantly at elimination of MAO-A-inhibitory activity while keeping DYRK1A inhibitory potency, and not at achieving high selectivity for DYRK1A over CLK1. The tests were performed as described by us before in detail. Due to the very large number of test compounds (more than 60), a first screening was performed at a single inhibitor concentration of 1 µM.
(§2) Inhibitors were dissolved in DMSO at a concentration of 10 mM and stored at […]. Working solutions were prepared to achieve a final concentration of 1 µM in the enzyme assays.
(§3) Recombinant kinases were purified from E. coli as GST (glutathione S-transferase) fusion constructs by affinity adsorption to glutathione-Sepharose. […] Catalytic activity of the kinases was measured with the help of the Kinase-GLO^TM Luminescent Assay from Promega. Assays were performed in a total volume of 10 μL in kinase buffer (25 mM Hepes pH 7.4, 0.5 mM DTT, 5 mM MgCl2, 5 μM ATP) with appropriate peptide substrates (20 μM DYRKtide for the DYRKs and 100 μM DYRKtide for HIPK2, […]; or 100 μM RS peptide for CLK1, […]). Kinases amounts in the assays were adjusted so that approximately 90% of the ATP in the assay was consumed in control samples without inhibitor. Kinase reactions were incubated at room temperature for 30 min before 10 μL Kinase-GLO reagent was added for luminometric measurement of the ATP that was not consumed by the kinases. After incubation at room temperature for an additional 10 min, luminescence was recorded for 1 s (Berthold Orion Microplate Luminometer). ATP consumption in the control samples without inhibitor was set as 100% catalytic activity, and the inhibitory effects of the test compounds were calculated relative to this value.

human recombinant MAO-A = target: T2, human recombinant MAO-A (Homo sapiens, UniProt P21397); assay: MAO-GLO luminescence assay of MAO-A catalytic activity; details: read-out: MAO-A residual activity
T2 sequence (P21397 1-527): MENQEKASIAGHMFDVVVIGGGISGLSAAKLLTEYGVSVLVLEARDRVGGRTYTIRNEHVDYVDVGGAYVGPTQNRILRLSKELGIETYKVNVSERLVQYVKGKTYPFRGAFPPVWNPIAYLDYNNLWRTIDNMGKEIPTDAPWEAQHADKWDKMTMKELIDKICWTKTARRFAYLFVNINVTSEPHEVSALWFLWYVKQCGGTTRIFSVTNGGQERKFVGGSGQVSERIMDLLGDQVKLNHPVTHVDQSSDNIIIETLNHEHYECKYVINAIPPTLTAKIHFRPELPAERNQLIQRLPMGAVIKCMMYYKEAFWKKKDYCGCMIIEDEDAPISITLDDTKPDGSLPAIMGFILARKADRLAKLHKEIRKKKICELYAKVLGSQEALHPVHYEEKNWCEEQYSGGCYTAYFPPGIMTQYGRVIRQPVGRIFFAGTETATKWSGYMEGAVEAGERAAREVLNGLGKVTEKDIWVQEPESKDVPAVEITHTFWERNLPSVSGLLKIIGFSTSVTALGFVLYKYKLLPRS
Method: as §1, §2
Catalytic activity of monoamine oxidase A (MAO-A) was measured by using the luminescence-based MAO-GLO^TM Assay from Promega. Recombinant MAO-A converts a luminogenic MAO substrate into luciferin, which is, in turn, luminometrically detected in a luciferase reaction. The amount of light produced is directly proportional to MAO activity. […] Inhibitory effects of the tested compounds were calculated relative to the activity of control reactions that were run in the absence of inhibitors.

[2] = target: T3, GST-CLK1cat (amino acids 141–484 of human CLK1) (Homo sapiens, UniProt P49759); assay: Kinase-GLO luminescent assay of CLK1 catalytic activity; details: read-out: CLK1 residual activity
T3 construct: containing amino acids 141–484 of human CLK1; made in house; host or cells: E. coli
Method: as §1, §2, §3

[3] = 1 µM inhibitor concentration, residual activity relative to control without inhibitor

T3 sequence (P49759 141-484): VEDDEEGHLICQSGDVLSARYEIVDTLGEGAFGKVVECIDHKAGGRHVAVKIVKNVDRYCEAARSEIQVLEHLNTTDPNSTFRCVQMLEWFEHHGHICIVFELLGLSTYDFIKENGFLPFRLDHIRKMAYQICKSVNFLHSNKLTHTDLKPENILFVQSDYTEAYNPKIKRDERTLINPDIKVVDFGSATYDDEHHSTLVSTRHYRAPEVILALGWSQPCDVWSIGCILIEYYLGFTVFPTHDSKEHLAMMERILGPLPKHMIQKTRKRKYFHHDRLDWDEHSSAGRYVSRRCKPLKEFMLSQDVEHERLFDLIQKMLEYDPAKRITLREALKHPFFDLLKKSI

Row | remaining activity at 1 µM [1, 3] | remaining activity at 1 µM (human recombinant MAO-A; [3]) | remaining activity at 1 µM [2, 3] | Compound | remaining activity at 1 µM (human recombinant MAO-A) | remaining activity at 1 µM [1] | remaining activity at 1 µM [2]
1 | 27% | 100% | 58% | COc1ccc2c(c1)[nH]c1c(/C=C/c3ccccc3)nccc12 [AnnH18] | – | – | –
2 | 55% | 15% | 54% | COc1ccc2c(c1)C(=O)c1c-2ccnc1C [AnnHT2, 7-Methoxy-1-methyl-9H-indeno-[2,1-c]pyridin-9-one] | – | – | –
3 | 12% | 112% | 46% | C#CCn1c2cc(OC)ccc2c2ccnc(Cl)c21 [AnnH74, 1-Chloro-7-methoxy-9-(prop-2-yn-1-yl)-9H-pyrido[3,4-b]indole] | – | – | –
4 | 94% | 56% | 62% | CCCCn1c2cc(OC)c(Cl)cc2c2ccnc(C)c21 [AnnH14, 9-Butyl-6-chloro-7-methoxy-1-methyl-9H-pyrido[3,4-b]indole] | – | – | –
5 | 59% | 34% | 76% | COc1ccc2c(c1)C(O)c1c-2ccnc1C (racemic) [AnnHT3, (±)-7-Methoxy-1-methyl-9H-indeno-[2,1-c]pyridin-9-ol] | – | – | –
6 | 33% | 97% | 78% | COc1ccc2c3ccnc(C)c3n(CCN3CCCCC3)c2c1 [AnnH57, 7-Methoxy-1-methyl-9-[2-(piperidin-1-yl)ethyl]-9H-pyrido[3,4-b]indole] | – | – | –
7 | 30% | 19% | 15% | COc1ccc2c3ccnc(C)c3n(C(C)=O)c2c1 [AnnH59, 1-(7-Methoxy-1-methyl-9H-pyrido[3,4-b]indol-9-yl)ethan-1-one] | – | – | –
8 | 104% | 4% | 60% | CCCCn1c2c(C)nccc2c2ccc(OC)c(Cl)c21 [AnnH11, 9-Butyl-8-chloro-7-methoxy-1-methyl-9H-pyrido[3,4-b]indole] | – | – | –
9 | 91% | 125% | 84% | COc1ccc2c3ccnc(C)c3n(Cc3ccc4ccccc4c3)c2c1 [AnnH39, 7-Methoxy-1-methyl-9-(2-naphthylmethyl)-9H-pyrido[3,4-b]indole] | – | – | –
10 | 64% | 24% | 87% | CNC(=O)Cn1c2cc(OC)ccc2c2ccnc(C)c21 [AnnH30, 2-(7-Methoxy-1-methyl-9H-pyrido[3,4-b]indol-9-yl)-N-methylacetamide] | – | – | –
11 | 95% | 123% | 84% | C#CCn1c2c(Br)nccc2c2ccc(Cl)c(Cl)c21 [AnnH80, 1-Bromo-7,8-dichloro-9-(prop-2-yn-1-yl)-9H-pyrido[3,4-b]indole] | – | – | –
12 | 96% | 8% | – | CCCCn1c2c(C)nccc2c2ccc(OC)c(Br)c21 [AnnH9, 8-Bromo-9-butyl-7-methoxy-1-methyl-9H-pyrido[3,4-b]indole] | – | – | –
13 | 88% | 80% | – | COc1ccc2c3ccnc(C)c3n(Cc3ccccc3)c2c1 [AnnH4, 9-Benzyl-7-methoxy-1-methyl-9H-pyrido[3,4-b]indole] | – | – | –
14 | – | 6% | 34% | COc1ccc2c3ccnc(C)c3n(CC(=O)O)c2c1 [AnnH25, 2-(7-Methoxy-1-methyl-9H-pyrido[3,4-b]indol-9-yl)acetic acid] | – | – | –
15 | – | 131% | 89% | COc1ccc2c3ccnc(C)c3n(CC(N)=O)c2c1 [AnnH28, 2-(7-Methoxy-1-methyl-9H-pyrido[3,4-b]indol-9-yl)-N-acetamide] | – | – | –
16 | – | 10% | 24% | CCCCn1c2cc(OC)ccc2c2ccnc(C)c21 [AnnH3, 9-Butyl-7-methoxy-1-methyl-9H-pyrido[3,4-b]indole] | – | – | –

Second part, the molecule before the results:

Row | Compound | remaining activity at 1 µM [1, 3] | remaining activity at 1 µM (human recombinant MAO-A; [3]) | remaining activity at 1 µM [2, 3] | remaining activity at 1 µM (human recombinant MAO-A) | remaining activity at 1 µM [1] | remaining activity at 1 µM [2]
17 | COc1ccc2c(c1)[nH]c1c(=O)[nH]ccc12 [AnnH20, 7-Methoxy-2,9-dihydro-1H-pyrido[3,4-b]indol-1-one] | – | – | – | 127% | – | –
18 | COc1c(Cl)cc2c([nH]c3c(C)nccc32)c1Cl [AnnH6_3_1] | 99% | 64% | – | – | – | –
19 | COc1c(Br)cc2c([nH]c3c(C)nc(Br)cc32)c1Br [AnnH5_4, 3,6,8-tribromoharmine] | 126% | – | – | – | – | –
20 | CCc1nccc2c1[nH]c1cc(OC)ccc12 [AnnH89, 1-Ethyl-7-methoxy-9H-pyrido[3,4-b]indole] | 37% | 34% | 7% | – | – | –
21 | COc1ccc2c(c1)[nH]c1c(Cl)nccc12 [AnnH24, 1-chloro-7-methoxy-9H-pyrido[3,4-b]indole] | – | – | 17% | 103% | – | –
22 | COc1ccc2c3ccnc(C)c3n(C)c2c1 [AnnH1] | – | 2% | 6% | – | – | –
23 | COc1ccc2c([nH]c3c(C)nccc32)c1Br [AnnH5_3, 8-bromo-7-methoxy-1-methyl-9H-pyrido[3,4-b]indole] | 95% | 8% | – | – | – | –
24 | Cc1nccc2c3ccc(Cl)c(Cl)c3n(CC#N)c12 [AnnH69, 2-(7,8-Dichloro-1-methyl-9H-pyrido[3,4-b]indol-9-yl)acetonitrile] | – | – | – | 101% | 17% | 33%
25 | Clc1ccc2c([nH]c3c(Br)nccc32)c1Cl [AnnH52, 1-Bromo-7,8-dichloro-9H-pyrido[3,4-b]indole] | 36% | 118% | 45% | – | – | –
26 | CCOC(=O)CCn1c2cc(OC)ccc2c2ccnc(C)c21 [AnnH32, Ethyl 3-(7-Methoxy-1-methyl-9H-pyrido[3,4-b]indol-9-yl)propanoate] | – | – | – | 105% | 12% | 44%
27 | COc1cc2[nH]c3c(C)nccc3c2cc1Cl [AnnH6_3_2, 6-chloro-7-methoxy-1-methyl-9H-pyrido[3,4-b]indole] | 92% | 9% | – | – | – | –
28 | COc1cc2[nH]c3c(C)nccc3c2cc1Br [AnnH5_2] | 88% | 7% | – | – | – | –
29 | COc1ccc2c(c1)[nH]c1cnccc12 [norharmine (AnnH90), norharmine] | 36% | 45% | 26% | – | – | –
30 | COc1ccc2c3c([nH]c2c1)C(=O)NCC3 [AnnH19, 7-methoxy-2,3,4,9-tetrahydro-1H-pyrido[3,4-b]indol-1-one] | 122% | – | > 90% | – | – | –
31 | COc1ccc2c([nH]c3c(C)nccc32)c1Cl [AnnH6_1, 8-chloro-7-methoxy-1-methyl-9H-pyrido[3,4-b]indole] | 97% | 16% | – | – | – | –
32 | COc1c(Br)cc2c([nH]c3c(C)nccc32)c1Br [AnnH5_1] | 101% | 70% | – | – | – | –
33 | Cc1nccc2c1[nH]c1ccccc12 [harmane, reference compound] | – | – | – | 18% | 97% | –
34 | COc1ccc2c3ccnc(C)c3n(CCN(C)C)c2c1 [AnnH16, [2-(7-Methoxy-1-methyl-9H-pyrido[3,4-b]indol-9-yl)-ethyl]-dimethylamine] | 107% | 103% | – | – | – | –
